In publication doi:10.1101/2023.11.24.568596v1 (biorxiv, 2023):

Legend:
Conditions in all cases: binder
BMPR2 = biological target: T1, BMPR2 (Homo sapiens, UniProt Q13873)
T1 sequence (Q13873 1-1038): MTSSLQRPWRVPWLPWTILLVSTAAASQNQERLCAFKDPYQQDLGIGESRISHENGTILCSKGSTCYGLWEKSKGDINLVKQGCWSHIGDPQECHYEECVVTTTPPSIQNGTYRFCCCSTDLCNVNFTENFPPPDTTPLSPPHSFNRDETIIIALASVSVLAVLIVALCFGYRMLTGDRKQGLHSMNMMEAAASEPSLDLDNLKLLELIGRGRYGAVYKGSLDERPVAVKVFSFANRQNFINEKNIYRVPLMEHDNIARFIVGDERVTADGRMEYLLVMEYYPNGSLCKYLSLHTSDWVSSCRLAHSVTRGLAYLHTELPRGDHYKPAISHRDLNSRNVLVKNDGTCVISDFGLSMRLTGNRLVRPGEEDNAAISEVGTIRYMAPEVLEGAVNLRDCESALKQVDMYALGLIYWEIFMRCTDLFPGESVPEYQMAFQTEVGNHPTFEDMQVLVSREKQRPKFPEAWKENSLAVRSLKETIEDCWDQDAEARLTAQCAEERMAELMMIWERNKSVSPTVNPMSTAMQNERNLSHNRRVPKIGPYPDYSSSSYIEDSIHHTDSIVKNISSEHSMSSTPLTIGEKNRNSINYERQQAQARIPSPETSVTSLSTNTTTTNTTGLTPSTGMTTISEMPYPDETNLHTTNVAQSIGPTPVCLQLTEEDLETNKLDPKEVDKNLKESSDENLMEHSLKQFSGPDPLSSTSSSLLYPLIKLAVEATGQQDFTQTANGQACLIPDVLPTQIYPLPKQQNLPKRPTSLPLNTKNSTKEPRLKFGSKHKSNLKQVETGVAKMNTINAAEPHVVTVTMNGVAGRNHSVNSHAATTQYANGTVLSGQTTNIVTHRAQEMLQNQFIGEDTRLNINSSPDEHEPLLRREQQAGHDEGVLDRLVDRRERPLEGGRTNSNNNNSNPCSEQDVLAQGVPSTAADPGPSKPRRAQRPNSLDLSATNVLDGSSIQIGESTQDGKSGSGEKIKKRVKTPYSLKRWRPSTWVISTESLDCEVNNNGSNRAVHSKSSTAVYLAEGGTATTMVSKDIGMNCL

CDKL1 = CDKL1 (Homo sapiens, UniProt Q00532)
CDKL1, sequence (Q00532 whole entry): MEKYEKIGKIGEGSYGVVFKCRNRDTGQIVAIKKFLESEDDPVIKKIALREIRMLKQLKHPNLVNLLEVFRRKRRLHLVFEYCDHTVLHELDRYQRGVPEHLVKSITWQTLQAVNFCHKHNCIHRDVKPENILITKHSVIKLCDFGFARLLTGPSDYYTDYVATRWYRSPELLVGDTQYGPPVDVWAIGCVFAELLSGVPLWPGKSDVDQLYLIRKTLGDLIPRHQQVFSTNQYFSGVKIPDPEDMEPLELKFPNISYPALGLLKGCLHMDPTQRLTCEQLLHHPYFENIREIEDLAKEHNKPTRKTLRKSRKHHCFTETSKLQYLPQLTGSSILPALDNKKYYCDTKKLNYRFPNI

DYRK2 = biological target: T2, DYRK2 (Homo sapiens, UniProt Q92630)
T2 sequence (Q92630 1-601): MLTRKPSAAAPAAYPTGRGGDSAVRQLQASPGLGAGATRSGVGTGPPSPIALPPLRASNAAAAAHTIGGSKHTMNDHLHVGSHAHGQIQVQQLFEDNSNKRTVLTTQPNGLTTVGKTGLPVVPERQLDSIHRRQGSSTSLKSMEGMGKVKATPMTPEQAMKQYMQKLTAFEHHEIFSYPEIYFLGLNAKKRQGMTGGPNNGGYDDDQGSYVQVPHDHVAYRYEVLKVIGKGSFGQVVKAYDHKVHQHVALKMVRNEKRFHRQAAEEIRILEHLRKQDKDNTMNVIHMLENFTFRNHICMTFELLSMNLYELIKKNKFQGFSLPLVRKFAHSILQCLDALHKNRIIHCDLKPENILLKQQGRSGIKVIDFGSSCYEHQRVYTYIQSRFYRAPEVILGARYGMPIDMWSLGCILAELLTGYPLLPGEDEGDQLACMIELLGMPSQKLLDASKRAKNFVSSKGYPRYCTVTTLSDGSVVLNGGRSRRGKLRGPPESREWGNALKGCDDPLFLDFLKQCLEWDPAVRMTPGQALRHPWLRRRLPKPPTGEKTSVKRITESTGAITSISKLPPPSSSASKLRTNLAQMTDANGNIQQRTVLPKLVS

EphA2 = EphA2 (Homo sapiens, UniProt P29317)
EphA2, sequence (P29317 whole entry): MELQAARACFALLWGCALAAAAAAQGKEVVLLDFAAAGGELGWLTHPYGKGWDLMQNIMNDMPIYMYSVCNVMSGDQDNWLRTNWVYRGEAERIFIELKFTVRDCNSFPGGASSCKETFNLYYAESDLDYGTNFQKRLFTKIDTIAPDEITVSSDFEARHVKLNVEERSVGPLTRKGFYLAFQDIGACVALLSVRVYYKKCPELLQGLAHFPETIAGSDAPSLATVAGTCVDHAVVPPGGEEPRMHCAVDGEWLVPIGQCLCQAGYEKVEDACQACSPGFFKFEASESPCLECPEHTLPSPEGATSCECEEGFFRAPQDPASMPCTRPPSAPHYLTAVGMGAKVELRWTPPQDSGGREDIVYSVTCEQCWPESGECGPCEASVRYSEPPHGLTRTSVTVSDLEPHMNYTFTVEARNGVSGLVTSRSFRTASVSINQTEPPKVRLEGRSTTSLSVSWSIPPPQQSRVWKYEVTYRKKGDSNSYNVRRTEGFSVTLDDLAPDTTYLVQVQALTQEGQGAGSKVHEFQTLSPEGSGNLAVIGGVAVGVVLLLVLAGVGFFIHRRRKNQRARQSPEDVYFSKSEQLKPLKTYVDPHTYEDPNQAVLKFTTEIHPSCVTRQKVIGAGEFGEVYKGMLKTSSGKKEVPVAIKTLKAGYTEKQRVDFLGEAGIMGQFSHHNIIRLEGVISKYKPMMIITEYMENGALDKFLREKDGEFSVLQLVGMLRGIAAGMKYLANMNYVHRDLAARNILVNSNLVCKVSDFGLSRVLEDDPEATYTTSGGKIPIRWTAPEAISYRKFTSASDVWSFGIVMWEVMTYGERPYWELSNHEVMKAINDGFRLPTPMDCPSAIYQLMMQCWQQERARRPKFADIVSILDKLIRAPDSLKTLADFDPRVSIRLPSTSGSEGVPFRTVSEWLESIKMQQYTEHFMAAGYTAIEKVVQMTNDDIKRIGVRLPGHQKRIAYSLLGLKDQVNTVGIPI

HIPK2 = HIPK2 (Homo sapiens, UniProt Q9H2X6)
HIPK2, sequence (Q9H2X6 whole entry): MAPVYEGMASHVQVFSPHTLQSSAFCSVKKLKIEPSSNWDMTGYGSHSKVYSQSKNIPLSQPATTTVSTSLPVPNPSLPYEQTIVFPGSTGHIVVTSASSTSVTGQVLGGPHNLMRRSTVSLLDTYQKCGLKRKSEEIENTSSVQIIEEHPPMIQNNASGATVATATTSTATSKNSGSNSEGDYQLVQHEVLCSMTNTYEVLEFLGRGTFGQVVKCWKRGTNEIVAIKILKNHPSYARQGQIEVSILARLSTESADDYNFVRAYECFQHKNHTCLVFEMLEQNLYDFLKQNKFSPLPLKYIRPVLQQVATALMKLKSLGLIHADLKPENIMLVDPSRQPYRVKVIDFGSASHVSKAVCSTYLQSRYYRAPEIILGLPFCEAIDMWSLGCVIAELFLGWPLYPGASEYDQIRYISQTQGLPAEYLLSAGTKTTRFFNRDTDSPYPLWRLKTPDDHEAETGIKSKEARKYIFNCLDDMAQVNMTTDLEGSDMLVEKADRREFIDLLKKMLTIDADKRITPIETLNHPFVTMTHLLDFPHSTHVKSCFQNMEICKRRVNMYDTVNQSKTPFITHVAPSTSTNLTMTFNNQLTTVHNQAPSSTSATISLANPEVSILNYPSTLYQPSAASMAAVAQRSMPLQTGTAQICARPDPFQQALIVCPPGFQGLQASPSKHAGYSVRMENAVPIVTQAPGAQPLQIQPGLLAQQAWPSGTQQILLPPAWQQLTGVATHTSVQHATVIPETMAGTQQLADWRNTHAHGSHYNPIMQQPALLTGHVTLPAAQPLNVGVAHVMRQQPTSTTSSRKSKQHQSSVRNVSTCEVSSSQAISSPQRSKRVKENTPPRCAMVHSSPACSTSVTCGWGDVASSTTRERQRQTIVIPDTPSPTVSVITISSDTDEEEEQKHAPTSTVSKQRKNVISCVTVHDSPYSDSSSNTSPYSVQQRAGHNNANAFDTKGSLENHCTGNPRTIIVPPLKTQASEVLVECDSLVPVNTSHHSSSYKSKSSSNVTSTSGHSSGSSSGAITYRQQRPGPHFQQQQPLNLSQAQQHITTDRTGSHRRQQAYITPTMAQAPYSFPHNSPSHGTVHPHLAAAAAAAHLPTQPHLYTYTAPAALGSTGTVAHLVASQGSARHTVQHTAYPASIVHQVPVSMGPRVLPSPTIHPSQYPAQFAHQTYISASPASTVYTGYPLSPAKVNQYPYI

Haspin = biological target: T3, Haspin (Homo sapiens, UniProt Q8TF76)
T3 sequence (Q8TF76 1-798): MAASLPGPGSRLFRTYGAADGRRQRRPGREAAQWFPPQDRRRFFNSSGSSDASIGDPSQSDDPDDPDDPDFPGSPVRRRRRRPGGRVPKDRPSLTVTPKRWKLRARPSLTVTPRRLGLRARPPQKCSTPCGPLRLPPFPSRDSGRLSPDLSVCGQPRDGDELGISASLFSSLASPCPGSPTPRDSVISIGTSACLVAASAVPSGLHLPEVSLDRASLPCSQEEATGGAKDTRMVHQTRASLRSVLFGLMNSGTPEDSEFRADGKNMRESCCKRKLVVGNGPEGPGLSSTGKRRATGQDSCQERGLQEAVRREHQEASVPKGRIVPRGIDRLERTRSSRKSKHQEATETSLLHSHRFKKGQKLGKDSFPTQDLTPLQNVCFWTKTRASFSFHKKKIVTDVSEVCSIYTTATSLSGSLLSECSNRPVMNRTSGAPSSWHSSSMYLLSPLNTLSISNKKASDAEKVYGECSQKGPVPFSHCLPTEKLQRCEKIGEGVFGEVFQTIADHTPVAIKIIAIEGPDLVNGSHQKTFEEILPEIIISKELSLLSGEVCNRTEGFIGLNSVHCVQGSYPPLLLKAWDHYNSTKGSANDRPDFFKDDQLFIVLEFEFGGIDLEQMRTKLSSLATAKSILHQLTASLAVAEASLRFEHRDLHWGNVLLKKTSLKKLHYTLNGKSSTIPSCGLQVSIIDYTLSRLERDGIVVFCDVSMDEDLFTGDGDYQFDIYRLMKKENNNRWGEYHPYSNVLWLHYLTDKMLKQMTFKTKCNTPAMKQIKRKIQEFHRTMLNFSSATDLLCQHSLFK

MELK = MELK (Homo sapiens, UniProt Q14680)
MELK, sequence (Q14680 whole entry): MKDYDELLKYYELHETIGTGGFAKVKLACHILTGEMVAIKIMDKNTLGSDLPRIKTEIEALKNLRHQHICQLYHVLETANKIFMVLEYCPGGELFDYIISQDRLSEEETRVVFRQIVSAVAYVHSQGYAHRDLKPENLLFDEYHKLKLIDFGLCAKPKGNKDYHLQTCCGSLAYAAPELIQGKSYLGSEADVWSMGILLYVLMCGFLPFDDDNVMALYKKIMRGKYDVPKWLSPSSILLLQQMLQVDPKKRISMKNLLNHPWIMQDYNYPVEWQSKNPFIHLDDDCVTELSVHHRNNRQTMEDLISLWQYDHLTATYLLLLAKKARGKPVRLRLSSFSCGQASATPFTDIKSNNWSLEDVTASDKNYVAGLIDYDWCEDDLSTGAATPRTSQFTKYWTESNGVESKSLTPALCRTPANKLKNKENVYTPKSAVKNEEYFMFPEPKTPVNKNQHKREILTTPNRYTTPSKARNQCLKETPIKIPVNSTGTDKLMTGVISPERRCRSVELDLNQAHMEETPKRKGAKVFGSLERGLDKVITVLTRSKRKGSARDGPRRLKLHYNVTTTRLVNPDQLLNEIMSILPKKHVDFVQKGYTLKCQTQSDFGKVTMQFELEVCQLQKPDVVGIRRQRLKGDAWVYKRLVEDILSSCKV

OSR1 = OSR1 (Homo sapiens, UniProt O95747)
OSR1, sequence (O95747 whole entry): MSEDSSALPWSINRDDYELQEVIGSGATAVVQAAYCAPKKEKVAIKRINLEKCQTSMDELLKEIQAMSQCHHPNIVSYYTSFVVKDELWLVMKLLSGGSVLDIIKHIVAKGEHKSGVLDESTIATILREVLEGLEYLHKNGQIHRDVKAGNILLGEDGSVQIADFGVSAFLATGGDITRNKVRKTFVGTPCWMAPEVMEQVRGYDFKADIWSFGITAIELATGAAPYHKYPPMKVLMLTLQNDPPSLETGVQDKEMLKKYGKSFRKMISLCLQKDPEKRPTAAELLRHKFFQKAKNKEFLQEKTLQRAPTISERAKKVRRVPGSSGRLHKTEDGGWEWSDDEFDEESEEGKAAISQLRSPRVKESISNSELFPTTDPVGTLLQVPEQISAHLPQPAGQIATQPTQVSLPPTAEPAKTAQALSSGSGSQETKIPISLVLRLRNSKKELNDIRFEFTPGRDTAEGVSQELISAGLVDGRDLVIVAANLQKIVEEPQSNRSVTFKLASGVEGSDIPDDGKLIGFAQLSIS

## Cc1cccc(-c2ccc(-c3cc4cnc(Nc5ccc(F)c(CO)c5)nc4n(CCCCN)c3=O)c(Cl)c2)n1 [compound 33, 8-(4-Aminobutyl)-6-(2-chloro-4-(6-methylpyridin-2-yl)phenyl)-2-((4-fluoro-3-(hydroxymethyl)phenyl)amino)pyrido[2,3-d]pyrimidin-7(8H)-one]
BMPR2
  dTm 33: -0.1 °C
CDKL1
  dTm 33: 2.0 °C
DYRK2
  dTm 33: -1.0 °C
EphA2
  dTm 33: 8.3 °C
HIPK2
  dTm 33: 2.0 °C
Haspin
  dTm 33: -0.2 °C
MELK
  dTm 33: 6.4 °C
OSR1
  dTm 33: 2.4 °C

## COc1ccc(O)c(Nc2ncc3cc(-c4ccc(-c5cccc(C)n5)cc4Cl)c(=O)n(CCCCN)c3n2)c1 [compound 34, 8-(4-Aminobutyl)-6-(2-chloro-4-(6-methylpyridin-2-yl)phenyl)-2-((2-hydroxy-5-methoxy-phenyl)amino)pyrido[2,3-d]pyrimidin-7(8H)-one]
BMPR2
  dTm 34: 0.0 °C
CDKL1
  dTm 34: 1.5 °C
DYRK2
  dTm 34: 0.0 °C
EphA2
  dTm 34: 3.9 °C
HIPK2
  dTm 34: 0.5 °C
Haspin
  dTm 34: -0.2 °C
MELK
  dTm 34: 3.3 °C
OSR1
  dTm 34: 0.4 °C

## COc1cc(N2CCOCC2)ccc1Nc1ncc2cc(-c3ccc(-c4cccc(C)n4)cc3Cl)c(=O)n(CCCCN)c2n1 [compound 35, 8-(4-Aminobutyl)-6-(2-chloro-4-(6-methylpyridin-2-yl)phenyl)-2-((2-methoxy-4-morpholino-phenyl)amino)pyrido[2,3-d]pyrimidin-7(8H)-one]
BMPR2
  dTm 35: -1.0 °C
CDKL1
  dTm 35: 0.3 °C
DYRK2
  dTm 35: -0.6 °C
EphA2
  dTm 35: 4.6 °C
HIPK2
  dTm 35: 0.1 °C
Haspin
  dTm 35: -0.1 °C
MELK
  dTm 35: 7.5 °C
OSR1
  dTm 35: 2.6 °C

## COc1cc(N2CCN(C)CC2)ccc1Nc1ncc2cc(-c3ccc(-c4cccc(C)n4)cc3Cl)c(=O)n(CCCCN)c2n1 [compound 36, 8-(4-Aminobutyl)-6-(2-chloro-4-(6-methylpyridin-2-yl)phenyl)-2-((2-methoxy-4-(4-methylpiperazin-1-yl)phenyl)amino)pyrido[2,3-d]pyrimidin-7(8H)-one]
BMPR2
  dTm 36: -0.2 °C
CDKL1
  dTm 36: 0.8 °C
DYRK2
  dTm 36: -0.4 °C
EphA2
  dTm 36: 2.4 °C
HIPK2
  dTm 36: 0.3 °C
Haspin
  dTm 36: -0.7 °C
MELK
  dTm 36: 7.4 °C
OSR1
  dTm 36: 3.4 °C
